Measurements published in US6417399B1, “Amelioration of neurological disorders by the administration of (2R),(3S), and/or (2S),3(S) stereoisomers of valnoctamide” (Yissum Research Development Company of the Hebrew …, priority 1997, dated 2002).
Values joined by “and” are separate entries in the source; they are usually repeats but may differ in a detail not shown here. Identical values can stand only once. One block for each compound: values may come before it.

Assays:
[1] = animal models; cited from earlier work
epoxide hydrolase = target: T1, epoxide hydrolase (Homo sapiens, UniProt P07099); settings: racemic VCD; cited from earlier work
T1 construct: decreased clearance of CBZ-E in patients; host or cells: patients in vivo (endogenous enzyme)
T1 sequence (P07099 1-455): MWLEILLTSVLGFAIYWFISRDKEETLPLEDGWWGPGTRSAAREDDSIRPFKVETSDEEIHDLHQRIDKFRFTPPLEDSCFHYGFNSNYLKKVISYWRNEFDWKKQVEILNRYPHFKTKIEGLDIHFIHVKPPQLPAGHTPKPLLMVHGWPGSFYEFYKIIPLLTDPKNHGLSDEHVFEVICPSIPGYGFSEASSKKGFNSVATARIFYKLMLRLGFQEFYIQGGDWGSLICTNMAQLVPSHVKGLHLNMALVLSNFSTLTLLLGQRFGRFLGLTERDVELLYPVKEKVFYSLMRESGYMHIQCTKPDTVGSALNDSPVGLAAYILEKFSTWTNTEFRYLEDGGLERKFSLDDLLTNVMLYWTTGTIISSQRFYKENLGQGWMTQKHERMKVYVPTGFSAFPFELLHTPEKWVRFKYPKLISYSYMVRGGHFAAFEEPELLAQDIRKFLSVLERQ

[2] = in vivo; cited from earlier work
[3] = Pharmacokinetics of VCD stereoisomers in plasma after repeated oral dosing of racemic valnoctamide to epileptic patients; type: in vivo, human; settings: repeated oral racemic VCD 200 mg tid, last day
Experimental: (§1) Patients Six epileptic patients (four men and two women aged 23-35 years, with a body weight of 56-85 kg) were studied. All had been receiving a constant carbamazepine dose (800-1200 mg/day) for at least three months. One patient was also receiving phenytoin (250 mg/day) and a second patient phenobarbital (150 mg/day). Each patient received add-on VCD for eight consecutive days at a dosage of 400 mg on day 1 (single dose day), followed by 200 mg three times daily (tid) for seven days. On the last day, only the morning and the midday doses were administered. Blood samples for plasma VCD levels were collected at 0, 0.25, 0.5, 1, 1.5, 2, 3, 4, 5, 6, 8, 10, 12 and 24 hours after the first and the last morning dose. Additional samples were taken at times 0, 0.5, 1, and 2 hours after the morning dose on the last treatment day.
(§2) Plasma Handling and Analytical Assays Plasma samples were separated immediately by centrifugation at 2,000 g for 10 minutes and stored at −20° C. until assaying (VCD is stable at −20° C.). The VCD plasma samples were analyzed by a gas chromatograph (HP 5890 series II)-mass spectrometer (HP 5989A)-GC-MS data system equipped with chiral capillary column. The mass spectrometer was operated in E1 mode at 70eV, the source temperature of the MS was maintained at 200° C. and the quadruple at 100° C. Mass units and their relative abundance were calibrated with perfluorotributylamine (PFTBA). Spectra were collected in the range of […], and the chiral analysis started 18 minutes after injection. Gas chromatograph (GC) oven temperature programming conditions were as follows: 50° C. for 1 minute, then increasing at a rate of 8° C./minute until 100° C., holding for a minute then 4° C./minute until reaching a final temperature of 250° C. The injector temperature is 240° C. and the GC-MS transfer line temperature is 250° C. Inlet pressure is 5 psi with a linear flow rate 20 cm/second. Helium was used as the carrier gas. Chromatographic resolution of the VCD stereoisomers was accomplished by a direct separation on a chiral stationary phase (CSP) column. The CSP consisted of a Chirasil-γ-Dex (octakis (3-O-butanoyl-2,6-di-o-pentyl)-γ-cyclodextrin chemically linked via a 6-mono-octamethylene spacer to a dimethylpolysiloxane. The 0.25 μm Chirasil-γ-Dex was coated on a 25 m×250 μm (id) fused silica capillary column. This CSP of a cyclodextin derivative allows complete baseline resolution of the four stereoisomers (α=1.04, Rs=2.0-2.4) in 24 minutes as depicted in FIG. 2. Intra and inter-day variability in the retention times of the four VCD stereoisomers was less than 10%. A calibration curve was established by spiking drug-free plasma samples with known amounts of racemic VCD at a concentration range of 0.2 mg/L to 8 mg/L (or 0.05 mg/L to 2 mg/L of each of the four VCD stereoisomers).
(§3) Pharmacokinetic and Statistical Analysis Pharmacokinetic parameters were calculated by noncompartmental analysis according to statistical moment theory. Peak plasma concentrations (Cmax) and peak times (tmax) were derived directly from the measured values. The linear terminal slopes (λ) of the log-concentration of each VCD stereoisomer versus time curves were calculated by the peeling procedure. Half life (t½) values were calculated as 0.693/λ. Areas under the plasma concentration versus time curve (AUC), after single dosing, were calculated by the trapezoidal rule with extrapolation to infinity by dividing the last measured concentration by the terminal slope. During repeated administration AUC was calculated over the last two dosing intervals by using the trapezoidal rule. Mean residence time (MRT) was calculated after single dosing as AUMC/AUC, in which AUMC is the area under the concentration×time product versus time curve from zero to infinity. Following single dosing, oral clearance (CL/F, in which F is the oral availability) and apparent volume of distribution at steady state (Vss/F) were calculated as Dose/AUC and as MRT×CL/F, respectively. […]

[4] = Pharmacokinetics of VCD stereoisomers in plasma after single oral dose of racemic valnoctamide to epileptic patients; type: in vivo, human; settings: for CL/F / Cmax / MRT / tmax / t½: single oral 400 mg racemic VCD
Experimental: as §1, §2, §3

[5] = Pharmacokinetics of VCD stereoisomers in plasma after single oral dose of racemic valnoctamide to healthy subjects; type: in vivo, human
Experimental: Healthy Subjects Seven healthy male volunteers, aged 20-31 years, weighing 61 to 85 kg, received 2×200 mg valnoctamide tablets (Nirvanil@) at 08:00 hours after an overnight fast. Venous blood samples were taken through an indwelling catheter 0, 0.5, 1, 2, 3, 4, 5, 6, 8, 10, 12 and 24 hours after dosing. Food was witheld for 4 hours after dosing.
as §2
Pharmacokinetic and Statistical Analysis Pharmacokinetic parameters were calculated by noncompartmental analysis according to statistical moment theory. Peak plasma concentrations (Cmax) and peak times (tmax) were derived directly from the measured values. The linear terminal slopes (λ) of the log-concentration of each VCD stereoisomer versus time curves were calculated by the peeling procedure. Half life (t½) values were calculated as 0.693/λ. Areas under the plasma concentration versus time curve (AUC), after single dosing, were calculated by the trapezoidal rule with extrapolation to infinity by dividing the last measured concentration by the terminal slope. During repeated administration AUC was calculated over the last two dosing intervals by using the trapezoidal rule. Mean residence time (MRT) was calculated after single dosing as AUMC/AUC, in which AUMC is the area under the concentration×time product versus time curve from zero to infinity. Following single dosing, oral clearance (CL/F, in which F is the oral availability) and apparent volume of distribution at steady state (Vss/F) were calculated as Dose/AUC and as MRT×CL/F, respectively. Following repeated dosing, CL/F was calculated from the quotient of the dose (200 mg) and the AUC obtained during one dosing interval (defined as one-half of the AUC calculated over two consecutive dosing intervals). Comparison of the pharmacokinetic parameters of all four VCD stereoisomers was made by ANOVA.

[6] = in animals; cited from earlier work
[7] = Mean ± SD of six epileptic patients
[8] = individual epileptic patients on carbamazepine
[9] = Mean ± SD of seven healthy subjects, single oral 400 mg racemic VCD
[10] = individual healthy subjects, single oral 400 mg racemic VCD

Structure (SMILES): CCC(C)C(CC)C(N)=O (racemic) [VCD, 2-ethyl-3-methyl pentanamide]
anticonvulsant potency relative to VPA [1]: three times more potent
inhibition of the enzyme epoxide hydrolase (epoxide hydrolase): inhibitor of the enzyme epoxide hydrolase
half-life relative to that of VPD [2]: ten times higher

CL/F [3, 7]: 29 ± 6 L/h
Cmax [3, 7]: 0.6 ± 0.1 mg/L
tmax [3, 7]: 1.4 ± 0.3 h
t½ [3, 7]: 3.2 ± 1.4 h
CL/F [4, 7]: 46 ± 11 L/h
Cmax [4, 7]: 0.61 ± 0.11 mg/L
MRT [4, 7]: 4.7 ± 1.0 h
tmax [4, 7]: 0.83 ± 0.51 h
t½ [4, 7]: 3.3 ± 1.1 h
half lives ([4]; epileptic patients): about 3 h
tmax [4, 8]: 1.5 h (2×) and 0.5 h (4×)
t½ [4, 8]: 1.2 h and 3.8 h (3×) and 2.7 h and 3.9 h
CL/F [5, 9]: 4.6 ± 0.7 L/h
Cmax [5, 9]: 1.5 ± 0.2 mg/L
MRT [5, 9]: 15 ± 3 h
tmax [5, 9]: 0.7 ± 0.3 h
t½ [5, 9]: 10 ± 2 h
t½ ([5]; Mean ± SD of seven healthy subjects, single oral 400 mg racemic VCD, listed as D): approximately 10 h
tmax [5, 10]: 1 h (3×) and 0.5 h (4×)
Structure (SMILES): CCC(C)C(CC)C(N)=O (single isomer, unassigned; stereoisomer d) [Stereoisomer D]
CL/F ([3]; individual epileptic patients): 36 L/h and 25 L/h (3×) and 38 L/h and 24 L/h
Cmax ([3]; individual epileptic patients): 0.7 mg/L and 0.8 mg/L and 0.6 mg/L (3×) and 0.5 mg/L
tmax ([3]; individual epileptic patients): 2.0 h and 1.5 h (3×) and 1.0 h and 1.25 h
t½ ([3]; individual epileptic patients, last dosing interval): 2.1 h and 2.8 h and 5.2 h and 2.5 h and 5.3 h and 4.6 h
CL/F [4, 8]: 60 L/h and 35 L/h and 45 L/h and 42 L/h (2×) and 30 L/h
Cmax [4, 8]: 0.51 mg/L (3×) and 0.72 mg/L (2×) and 0.69 mg/L
MRT [4, 8]: 3.3 h and 5.2 h and 4.5 h and 5.6 h and 5.4 h and 5.3 h
CL/F [5, 10]: 4.3 L/h and 5.6 L/h and 4.8 L/h and 3.8 L/h and 5.4 L/h and 4.7 L/h and 4.1 L/h
Cmax [5, 10]: 1.5 mg/L (3×) and 1.3 mg/L and 1.6 mg/L and 1.4 mg/L and 1.8 mg/L
MRT [5, 10]: 13 h (2×) and 18 h (2×) and 12 h (2×) and 19 h
t½ ([5]; individual healthy subjects, single oral 400 mg racemic VCD (Nirvanil), stereoisomer in plasma): 8.7 h and 12.9 h and 8.0 h and 13.0 h and 9.5 h and 7.9 h and 13 h

Structure (SMILES): CCCC(CCC)C(N)=O [VPD, Valpromide]
anticonvulsant potency relative to VPA [1]: three times more potent
teratogenicity [6]: has not been found to be teratogenic
